# Results as given in patent US20120083522A1, “MODULATION OF INFLAMMATORY RESPONSES BY FACTOR XI” (Isis Pharmaceuitcals, inc., priority 2009, published 2012).
# In the oligonucleotide strings, read from the 5' end, every base follows the letter of its sugar. An asterisk marks phosphorothioate; unmarked linkages are phosphodiester. Other units and linkages are bracketed, terminal groups are in braces. A string of capitals states the bases alone. e = 2'-O-(2-methoxyethyl) (MOE); [5mC] = 5-methylcytosine; d = 2'-deoxy (DNA)
# Tests used:
# Factor XI protein = experiment: Cynomolgus monkeys: plasma Factor XI protein ELISA (Example 29); assay type: in vivo
# Experimental: Groups, each consisting of two male and three female monkeys, were injected subcutaneously with ISIS 416838, ISIS 416850, ISIS 416858, ISIS 416864, or ISIS 417002 in escalating doses. Antisense oligonucleotide was administered to the monkeys at 5 mg/kg three times per a week for week 1; 5 mg/kg twice per week for weeks 2 and 3; 10 mg/kg three times per week for week 4; 10 mg/kg twice per week for weeks 5 and 6; 25 mg/kg three times per week for week 7; and 25 mg/kg twice per week for weeks 8, 9, 10, 11, and 12. One control group, consisting of two male and three female monkeys, was injected subcutaneously with PBS according to the same dosing regimen. An additional experimental group, consisting of two male and three female monkeys, was injected subcutaneously with ISIS 416850 in a chronic, lower dose regimen. Antisense oligonucleotide was administered to the monkeys at 5 mg/kg three times per week for week 1; 5 mg/kg twice per week for week 2 and 3; 10 mg/kg three times per week for week 4; and 10 mg/kg twice per week for weeks 5 to 12. Body weights were measured weekly. Blood samples were collected 14 days and 5 days before the start of treatment and subsequently once per week for Factor XI protein activity analysis in plasma and measurement of various hematologic factors. On day 85, the monkeys were euthanized by exsanguination while under deep anesthesia, and organs harvested for further analysis.
# Plasma samples from all monkey groups taken on different days were analyzed by a sandwich-style ELISA assay (Affinity Biologicals Inc.) using an affinity-purified polyclonal anti-Factor XI antibody as the capture antibody and a peroxidase-conjugated polyclonal anti-Factor XI antibody as the detecting antibody. Monkey plasma was diluted 1:50 for the assay. Peroxidase activity was expressed by incubation with the substrate o-phenylenediamine. The color produced was quantified using a microplate reader at 490 nm and was considered to be proportional to the concentration of Factor XI in the samples.
# The results are presented in Table 122, expressed as percentage reduction relative to that of the PBS control.
# [1] = tested on: IL-1β, IL-6, IFN-γ, TNF-α, IL-8, MIP-1α, MCP-1, MIP-10, RANTES; experiment: Cynomolgus monkeys: cytokine and chemokine assays (Example 30); assay type: in vivo
# Experimental: Groups, each consisting of two male and two female monkeys, were injected subcutaneously with 25 mg/kg of ISIS 416850, ISIS 449709, ISIS 445522, ISIS 449710, ISIS 449707, ISIS 449711, ISIS 449708, 416858 and ISIS 445531. Antisense oligonucleotide was administered to the monkeys at 25 mg/kg three times per week for week 1 and 25 mg/kg twice per week for weeks 2 to 8. A control group, consisting of two male and two female monkeys was injected subcutaneously with PBS according to the same dosing regimen. Body weights were taken 14 days and 7 days before the start of treatment and were then measured weekly throughout the treatment period. Blood samples were collected 14 days and 5 days before the start of treatment and subsequently several times during the dosing regimen for measurement of various hematologic factors. On day 55, the monkeys were euthanized by exsanguination while under deep anesthesia, and organs harvested for further analysis.
# Blood samples obtained from all monkey groups were sent to Pierce Biotechnology (Woburn, Mass.) for measurements of chemokine and cytokine levels. Levels of IL-1β, IL-6, IFN-γ, and TNF-α were measured using the respective primate antibodies and levels of IL-8, MIP-1α, MCP-1, MIP-10 and RANTES were measured using the respective cross-reacting human antibodies. Measurements were taken 14 days before the start of treatment and on day 55, when the monkeys were euthanized.
# [2] = tested on: IL-1, IL-6, IL-10, IL-12, IL-17, TNF-α, GATA-3; experiment: Colitis Study F: cytokine and GATA-3 mRNA levels in colon; assay type: in vivo, Swiss Webb mice; conditions: day 7
# Experimental: (§1) In a first group of 8 Swiss Webb mice, 50 mg/kg of ISIS 404071 was injected subcutaneously twice a week for 3 weeks. Two control groups of 8 mice each were injected with PBS twice a week for 3 weeks. After the oligonucleotide treatment, 4% DSS in water was administered ad libitum for 7 days to the experimental group and one PBS control group. Mice were sacrificed at the end of the study on day 7 after DSS was administered.
# The mRNA levels of cytokines IL-1, IL-6, IL-10, IL-12, IL-17 and TNF-α were measured in the colon of the mice groups at the end of the study on day 7 after DSS was administered. Colons were homogenized on ice in PBS supplemented with protease inhibitors (Sigma, St. Louis, Mo.) and extracted with rotation at 4° C. for 1 hour. After removal of insoluble material by centrifugation, colon homogenates were used for the cytokine analysis by multiplex ELISA (Meso Scale Discovery, Gaithersburg, Md.) according to the manufacture's protocol. Cytokine levels in colon extracts were normalized to the protein concentration measured by protein assay kit (BioRad, Hercules, Calif.). The levels of pro-inflammatory cytokines, including Th1 cytokines IL-1 and IL-6, elevated by DSS administration were decreased by treatment with ISIS 404071.
# Factor XI mRNA = experiment: Colitis Study F: Factor XI mRNA in liver and colon; assay type: in vivo, Swiss Webb mice; conditions: DSS-treated mice, 50 mg/kg, percent of the PBS treated control
# Experimental: as §1
# The effect of antisense inhibition in the liver and colon levels of Factor XI mRNA after treatment by ISIS 404071 is presented in Table 48 (as a percent of the PBS treated control).
# [3] = tested on: DSS-induced colitis model; experiment: Colitis Study A: colon tissue histopathology
# [4] = day −14 (before start of treatment)
substance,measurement,setting,value
ISIS 416850: gapmer of Table 8 (antisense eT*eG*e[5mC]*eA*e[5mC]*dA*dG*dT*dT*dT*d[5mC]*dT*dG*dG*d[5mC]*eA*eG*eG*e[5mC]*e[5mC]),Factor XI protein levels (in words),Factor XI protein; Example 29,time-dependent decrease in protein levels
same,Inhibition of Factor XI protein relative to the PBS control,"Factor XI protein; chronic, lower dose regimen (*) 5 then 10 mg/kg s.c., day 8",6%
same,Inhibition of Factor XI protein relative to the PBS control,"Factor XI protein; chronic, lower dose regimen (*) 5 then 10 mg/kg s.c., day 15",13%
same,Inhibition of Factor XI protein relative to the PBS control,"Factor XI protein; chronic, lower dose regimen (*) 5 then 10 mg/kg s.c., day 22",12%
same,Inhibition of Factor XI protein relative to the PBS control,"Factor XI protein; chronic, lower dose regimen (*) 5 then 10 mg/kg s.c., day 29",20%
same,Inhibition of Factor XI protein relative to the PBS control,"Factor XI protein; chronic, lower dose regimen (*) 5 then 10 mg/kg s.c., day 36",22%
same,Inhibition of Factor XI protein relative to the PBS control,"Factor XI protein; chronic, lower dose regimen (*) 5 then 10 mg/kg s.c., day 43",24%
same,Inhibition of Factor XI protein relative to the PBS control,"Factor XI protein; chronic, lower dose regimen (*) 5 then 10 mg/kg s.c., day 50",30%
same,Inhibition of Factor XI protein relative to the PBS control,"Factor XI protein; chronic, lower dose regimen (*) 5 then 10 mg/kg s.c., day 57",34%
same,Inhibition of Factor XI protein relative to the PBS control,"Factor XI protein; chronic, lower dose regimen (*) 5 then 10 mg/kg s.c., day 64",37%
same,Inhibition of Factor XI protein relative to the PBS control,"Factor XI protein; chronic, lower dose regimen (*) 5 then 10 mg/kg s.c., day 71",41%
same,Inhibition of Factor XI protein relative to the PBS control,"Factor XI protein; chronic, lower dose regimen (*) 5 then 10 mg/kg s.c., day 78",42%
same,Inhibition of Factor XI protein relative to the PBS control,"Factor XI protein; chronic, lower dose regimen (*) 5 then 10 mg/kg s.c., day 85",34%
same,Inhibition of Factor XI protein relative to the PBS control,"Factor XI protein; chronic, lower dose regimen (*) 5 then 10 mg/kg s.c., day −5 (before treatment)",1%
same,Inhibition of Factor XI protein relative to the PBS control,"Factor XI protein; chronic, lower dose regimen (*) 5 then 10 mg/kg s.c., day −14 (before treatment)",0%
same,Inhibition of Factor XI protein relative to the PBS control,"Factor XI protein; escalating doses 5, 10, 25 mg/kg s.c., day 8",8%
same,Inhibition of Factor XI protein relative to the PBS control,"Factor XI protein; escalating doses 5, 10, 25 mg/kg s.c., day 15",4%
same,Inhibition of Factor XI protein relative to the PBS control,"Factor XI protein; escalating doses 5, 10, 25 mg/kg s.c., day 22",11%
same,Inhibition of Factor XI protein relative to the PBS control,"Factor XI protein; escalating doses 5, 10, 25 mg/kg s.c., day 29",15%
same,Inhibition of Factor XI protein relative to the PBS control,"Factor XI protein; escalating doses 5, 10, 25 mg/kg s.c., day 36",17%
same,Inhibition of Factor XI protein relative to the PBS control,"Factor XI protein; escalating doses 5, 10, 25 mg/kg s.c., day 43",23%
same,Inhibition of Factor XI protein relative to the PBS control,"Factor XI protein; escalating doses 5, 10, 25 mg/kg s.c., day 50",42%
same,Inhibition of Factor XI protein relative to the PBS control,"Factor XI protein; escalating doses 5, 10, 25 mg/kg s.c., day 57",49%
same,Inhibition of Factor XI protein relative to the PBS control,"Factor XI protein; escalating doses 5, 10, 25 mg/kg s.c., day 64",55%
same,Inhibition of Factor XI protein relative to the PBS control,"Factor XI protein; escalating doses 5, 10, 25 mg/kg s.c., day 71",57%
same,Inhibition of Factor XI protein relative to the PBS control,"Factor XI protein; escalating doses 5, 10, 25 mg/kg s.c., day 78",63%
same,Inhibition of Factor XI protein relative to the PBS control,"Factor XI protein; escalating doses 5, 10, 25 mg/kg s.c., day 85",64%
same,Inhibition of Factor XI protein relative to the PBS control,"Factor XI protein; escalating doses 5, 10, 25 mg/kg s.c., day −5 (before treatment)",0%
same,Inhibition of Factor XI protein relative to the PBS control,"Factor XI protein; escalating doses 5, 10, 25 mg/kg s.c., day −14 (before treatment)",0%
same,IL-1β level,"[1]; 25 mg/kg s.c., day 55",106 pg/mL
same,MIP-1β level,"[1]; 25 mg/kg s.c., day 55",50 pg/mL
same,IL-1β level,[1]; [4],215 pg/mL
same,MIP-1β level,[1]; [4],31 pg/mL
TGGTAATCCACTTTCAGAGG (eT*eG*eG*eT*eA*dA*dT*d[5mC]*d[5mC]*dA*d[5mC]*dT*dT*dT*d[5mC]*eA*eG*eA*eG*eG) [ISIS 404071],pro-inflammatory cytokines incl. IL-1 and IL-6 in colon (in words),[2]; Colitis Study F,decreased
same,GATA-3 mRNA level in the colon,"[2]; DSS-treated mice, 50 mg/kg",359 % of PBS treated animals
same,IL-1 mRNA level in the colon,"[2]; DSS-treated mice, 50 mg/kg",1189 % of PBS treated animals
same,IL-6 mRNA level in the colon,"[2]; DSS-treated mice, 50 mg/kg",1056 % of PBS treated animals
same,IL-10 mRNA level in the colon,"[2]; DSS-treated mice, 50 mg/kg",202 % of PBS treated animals
same,IL-12 mRNA level in the colon,"[2]; DSS-treated mice, 50 mg/kg",234 % of PBS treated animals
same,IL-17 mRNA level in the colon,"[2]; DSS-treated mice, 50 mg/kg",787 % of PBS treated animals
same,TNF-α mRNA level in the colon,"[2]; DSS-treated mice, 50 mg/kg",1127 % of PBS treated animals
same,Factor XI mRNA levels in the Colon,Factor XI mRNA,148 % of normal
same,Factor XI mRNA levels in the Liver,Factor XI mRNA,24 % of normal
same,"colon histology, lesions (in words)",[3]; FIG. 8,significantly fewer mucosa ulcerative lesions
same,"colon histology, lesions (in words)","[3]; FIG. 8, listed as Factor XI",significantly milder ulcerative colitis lesions
same,mucosa ulcers,"[3]; FIG. 8D, DSS control 2-4/animal",> 1 /animal
